Our source for the IC50 and bioavailability values is ChEMBL document CHEMBL4011593, “Development of 2, 4-diaminoquinazoline derivatives as potent PAK4 inhibitors by the core refinement strategy” (Eur J Med Chem, 2017).

For the first data set, the target named is T1, Serine/threonine-protein kinase PAK 4 (Homo sapiens, UniProt O96013). The data set is described as follows: Inhibition of recombinant human N-terminal GST-fused PAK4 (1 to 591 residues) expressed in baculovirus expression system using S2 as substrate measured after 40 mins by HTRF assay.
T1 sequence (O96013 whole entry, the tested form may be a part): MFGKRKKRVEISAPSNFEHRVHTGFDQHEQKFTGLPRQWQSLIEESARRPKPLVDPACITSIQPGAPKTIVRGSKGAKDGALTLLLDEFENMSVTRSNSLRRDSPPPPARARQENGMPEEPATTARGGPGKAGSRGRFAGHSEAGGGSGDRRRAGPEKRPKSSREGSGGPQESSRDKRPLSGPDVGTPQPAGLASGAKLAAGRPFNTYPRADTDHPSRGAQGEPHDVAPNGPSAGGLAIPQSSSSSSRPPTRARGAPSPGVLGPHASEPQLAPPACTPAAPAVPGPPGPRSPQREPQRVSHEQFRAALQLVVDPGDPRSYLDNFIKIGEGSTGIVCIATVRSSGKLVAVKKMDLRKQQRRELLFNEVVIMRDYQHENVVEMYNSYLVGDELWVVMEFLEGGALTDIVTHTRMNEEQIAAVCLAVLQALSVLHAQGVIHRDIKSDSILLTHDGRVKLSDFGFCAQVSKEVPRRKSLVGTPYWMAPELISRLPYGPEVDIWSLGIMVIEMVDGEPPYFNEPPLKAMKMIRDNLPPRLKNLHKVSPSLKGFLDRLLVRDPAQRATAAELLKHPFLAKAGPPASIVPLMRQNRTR
Conditions: not given
With `Clc1ccc2nc(Nc3cc(Cl)c4[nH]ncc4c3)nc(NCCc3c[nH]c4ccccc34)c2c1`, the IC50 (as a rule, the concentration that gives 50% inhibition) worked out at 937 nM.
`Clc1ccc2nc(Nc3cc(Br)c4[nH]ncc4c3)nc(NCCc3c[nH]c4ccccc34)c2c1`: the IC50 came out at 1060 nM.
The same measure, in the same setting: the value for `COc1ccc2c(Nc3ccc4[nH]ncc4c3)nc(NCCc3c[nH]c4ccccc34)nc2c1` was 483 nM; that for `COc1ccc2nc(NCCc3c[nH]c4ccccc34)nc(Nc3ccc4[nH]ncc4c3)c2c1` was 1510 nM; that for `Clc1ccc2nc(Nc3ccc4cn[nH]c4c3)nc(NCCc3c[nH]c4ccccc34)c2c1` was 2040 nM.
Same read-out and setting: the same measure for `Clc1ccc2nc(Nc3ccc4[nH]nnc4c3)nc(NCCc3c[nH]c4ccccc34)c2c1`: 1160 nM.
The same measure, in the same setting: the value for `O=C1Cc2cc(Nc3nc(NCCc4c[nH]c5ccccc45)c4cc(Cl)ccc4n3)ccc2N1` was 1760 nM.
On to `Cc1cc(Nc2nc(NCCc3c[nH]c4ccccc34)c3cc(Cl)ccc3n2)cc2cn[nH]c12`, for which the IC50 stood at 2330 nM.
Same read-out and setting: the value for `Clc1ccc2nc(Nc3ccc4[nH]cnc4c3)nc(NCCc3c[nH]c4ccccc34)c2c1` was 3070 nM; that for `Clc1ccc2nc(Nc3cnc4[nH]ncc4c3)nc(NCCc3c[nH]c4ccccc34)c2c1` was 633 nM.

For a further data set, the target named is T1, Serine/threonine-protein kinase PAK 4. The data set is described as follows: Inhibition of myc-tagged PAK4 (unknown origin) using histone H3 as substrate preincubated for 30 mins followed by substrate addition measured for 30 mins in presence of [gamma-32P]ATP by autoradiographic method.
Conditions: not given
With `COc1cccc(Nc2nc(NCC3CCCO3)c3ccccc3n2)c1` (configuration not stated), the IC50 was 14500 nM.

Test system in another data set: not listed separately
The data set is described as follows: Oral bioavailability in metastatic solid tumor patient. Format: ADME, organism-based. Particulars: human, in vivo.
As for `Cc1nc(Nc2n[nH]c3c2CN(C(=O)N[C@H](CN(C)C)c2ccccc2)C3(C)C)c2sccc2n1` [PF-03758309], the bioavailability – broadly, dose-corrected exposure relative to a reference, in per cent – is 1%.
